For one data set, the target named is TACE (Homo sapiens, UniProt P78536). Put plainly: Metalloprotease inhibition assay (Ki). It counts as biochemical.
The target in the next data set is MMP-12 active form (Mus musculus, UniProt P34960). Put plainly: Sponge model of sterile inflammation, fluorescence imaging of explanted sponges. The conditions noted are these: 60 minutes after intravenous administration, 1 nmol. Set-up: from tissue; host or cells: subcutaneously implanted polyvinyl alcohol sponges in C57BL/6 mice. It counts as in vivo, C57BL/6 mice. On the procedure: Sponge model of sterile inflammation: Pieces of polyvinyl alcohol sponge (Ivalon Ear Wick, 0.9 e × 15 mm, New London, CT) were implanted in dorsal subcutaneous pockets of C57BL/6 mice (originally from Jackson Laboratory, Farmington, CT, n = 24) under isoflurane anesthesia, as described. Animals were re-anesthetized at day 1 or 4 after sponge implantation, and the sponges were removed for imaging or embedded in OCT, snap-frozen, and stored at −80 °C for further analysis.
Chain of MMP-12 active form (P34960 110-473): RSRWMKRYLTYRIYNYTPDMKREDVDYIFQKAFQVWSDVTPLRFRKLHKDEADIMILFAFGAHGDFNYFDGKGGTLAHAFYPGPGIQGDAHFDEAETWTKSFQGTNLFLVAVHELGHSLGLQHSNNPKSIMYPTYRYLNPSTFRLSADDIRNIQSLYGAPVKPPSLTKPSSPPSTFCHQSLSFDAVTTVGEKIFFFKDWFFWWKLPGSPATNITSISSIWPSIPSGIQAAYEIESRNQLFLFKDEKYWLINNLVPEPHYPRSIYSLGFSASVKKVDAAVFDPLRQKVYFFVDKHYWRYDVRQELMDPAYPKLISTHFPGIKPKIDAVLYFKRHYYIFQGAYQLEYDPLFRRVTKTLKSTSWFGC
Fluorescent probes (one nmol in 100 μL saline) were administered through a jugular vein catheter under inhaled isoflurane anesthesia. Blood samples were collected at various time points after probe administration to monitor blood clearance. […] Near-infrared fluorescence reflectance imaging was conducted using an IVIS Spectrum system (Caliper Life Science, Hopkinton, MA) with appropriate excitation (Ex) and emission (Em) filter sets (Ex/Em = 675/720 nm for probe 1 and Ex/Em = 745/800 nm for probes 3 and 4). Fluorescence from 10 μL of blood was converted to % injected dose per gram (% ID/g) using a standard curve derived from serial dilutions of each probe in 10 μL of mouse blood. Tissue fluorescence was quantified as mean efficiency per pixel and was presented as an arbitrary unit (AU) relative to the signal from each probe in 10 μL of mouse blood.

Another data set has as its target T1, hMMP-2 (Homo sapiens, UniProt P08253).
T1 construct: purchased R&D Systems (Minneapolis, MN)
T1 sequence (P08253 110-660): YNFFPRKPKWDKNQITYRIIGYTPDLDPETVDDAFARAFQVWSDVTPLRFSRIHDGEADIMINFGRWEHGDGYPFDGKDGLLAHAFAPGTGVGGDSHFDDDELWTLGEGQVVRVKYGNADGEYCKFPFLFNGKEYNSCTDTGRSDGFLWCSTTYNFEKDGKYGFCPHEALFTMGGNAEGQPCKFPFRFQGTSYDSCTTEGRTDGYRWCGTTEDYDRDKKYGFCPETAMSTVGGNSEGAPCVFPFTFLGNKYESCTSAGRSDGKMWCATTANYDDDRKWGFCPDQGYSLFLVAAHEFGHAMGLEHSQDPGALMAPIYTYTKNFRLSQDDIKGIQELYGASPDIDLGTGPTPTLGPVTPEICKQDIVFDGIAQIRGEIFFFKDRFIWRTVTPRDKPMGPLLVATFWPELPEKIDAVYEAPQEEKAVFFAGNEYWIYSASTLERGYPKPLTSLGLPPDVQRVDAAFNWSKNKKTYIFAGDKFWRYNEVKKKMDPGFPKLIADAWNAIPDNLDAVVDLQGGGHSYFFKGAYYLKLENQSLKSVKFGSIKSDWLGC
Put plainly: MMP inhibition assay (Ki). It counts as biochemical. On the procedure:
(§1) Human MMP-8, -9, -12 and -13 were produced in the laboratory. Other MMPs were purchased from R&D Systems (Minneapolis, MN). MMP inhibition assays were carried out as previously described. Pro-MMPs were pre-activated by p-aminophenylmercuric acetate following the method described by R&D Systems. Titration experiments were carried out to determine active enzyme concentration for each MMP prior to the assay. For each probe, the percentage of inhibition was determined from five different concentrations in triplicates, chosen to reach a range of 20–80% inhibition. Ki values were determined using the method proposed by Horovitz and Leviski[45].

The target of a further data set is T2, hMMP-8 (Homo sapiens, UniProt P22894).
T2 construct: made in house
T2 sequence (P22894 101-467): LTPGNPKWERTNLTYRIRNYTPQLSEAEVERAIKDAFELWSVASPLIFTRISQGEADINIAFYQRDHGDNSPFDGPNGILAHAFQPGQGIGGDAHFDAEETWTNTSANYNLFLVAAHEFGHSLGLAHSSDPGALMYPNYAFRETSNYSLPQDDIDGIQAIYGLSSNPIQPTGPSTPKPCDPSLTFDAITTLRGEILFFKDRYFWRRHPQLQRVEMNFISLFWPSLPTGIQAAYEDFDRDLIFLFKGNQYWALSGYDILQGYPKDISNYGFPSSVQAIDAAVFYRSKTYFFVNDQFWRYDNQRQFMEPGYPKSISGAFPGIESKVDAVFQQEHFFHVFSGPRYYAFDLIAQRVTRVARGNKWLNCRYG
Put plainly: MMP inhibition assay (Ki). It counts as biochemical. On the procedure: as §1

The next data set concerns the target T3, hMMP-3 (Homo sapiens, UniProt P08254).
T3 construct: purchased R&D Systems (Minneapolis, MN)
Description: MMP inhibition assay (Ki). It counts as biochemical. On the procedure:
as §1

A further data set has as its target T4, hMMP-1 (Homo sapiens, UniProt P03956).
T4 construct: purchased R&D Systems (Minneapolis, MN)
T4 sequence (P03956 100-469): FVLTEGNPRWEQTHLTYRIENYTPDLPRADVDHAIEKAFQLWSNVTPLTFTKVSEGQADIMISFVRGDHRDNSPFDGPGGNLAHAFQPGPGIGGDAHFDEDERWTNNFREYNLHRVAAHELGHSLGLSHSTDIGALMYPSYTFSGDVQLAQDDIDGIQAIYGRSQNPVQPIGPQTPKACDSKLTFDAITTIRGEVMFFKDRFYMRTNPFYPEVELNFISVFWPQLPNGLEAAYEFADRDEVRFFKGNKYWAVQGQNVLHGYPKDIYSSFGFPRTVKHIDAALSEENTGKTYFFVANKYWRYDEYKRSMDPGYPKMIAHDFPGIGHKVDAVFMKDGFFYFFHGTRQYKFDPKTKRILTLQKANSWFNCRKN
Put plainly: MMP inhibition assay (Ki). It counts as biochemical. As to the method: as §1

For a further data set, the target named is T5, hMMP-9 (Homo sapiens, UniProt P14780).
T5 construct: made in house
T5 sequence (P14780 94-707): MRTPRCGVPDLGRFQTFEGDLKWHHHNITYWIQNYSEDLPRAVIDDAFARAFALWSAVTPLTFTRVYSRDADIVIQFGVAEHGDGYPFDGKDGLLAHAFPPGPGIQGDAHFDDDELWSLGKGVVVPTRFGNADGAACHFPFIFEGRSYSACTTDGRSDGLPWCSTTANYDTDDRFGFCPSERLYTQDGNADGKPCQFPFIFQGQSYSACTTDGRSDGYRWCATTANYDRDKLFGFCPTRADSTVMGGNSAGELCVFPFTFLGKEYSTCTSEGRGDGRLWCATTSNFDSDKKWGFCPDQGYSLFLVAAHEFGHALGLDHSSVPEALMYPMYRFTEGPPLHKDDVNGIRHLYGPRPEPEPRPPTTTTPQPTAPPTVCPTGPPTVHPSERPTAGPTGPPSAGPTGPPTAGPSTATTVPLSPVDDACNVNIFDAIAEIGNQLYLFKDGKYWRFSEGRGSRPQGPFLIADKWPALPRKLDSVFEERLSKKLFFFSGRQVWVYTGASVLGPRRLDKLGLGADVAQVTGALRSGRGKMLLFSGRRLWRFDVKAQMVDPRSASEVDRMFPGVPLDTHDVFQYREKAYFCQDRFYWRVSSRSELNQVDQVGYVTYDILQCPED
Put plainly: MMP inhibition assay (Ki). It counts as biochemical. As to the method:
as §1

The target in a further data set is T6, hMMP-14 (Homo sapiens, UniProt P50281).
T6 construct: purchased R&D Systems (Minneapolis, MN)
Put plainly: MMP inhibition assay (Ki). It counts as biochemical. As to the method: as §1

A further data set addresses T7, hMMP-7 (Homo sapiens, UniProt P09237).
T7 construct: purchased R&D Systems (Minneapolis, MN)
T7 sequence (P09237 95-267): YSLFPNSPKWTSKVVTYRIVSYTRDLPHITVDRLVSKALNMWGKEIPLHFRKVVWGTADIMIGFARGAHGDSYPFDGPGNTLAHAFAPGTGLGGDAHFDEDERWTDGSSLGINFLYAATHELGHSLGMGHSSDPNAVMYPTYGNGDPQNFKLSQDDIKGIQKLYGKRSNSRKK
Description: MMP inhibition assay (Ki). It counts as biochemical. As to the method:
as §1

The target in a further data set is T8, hMMP-10 (Homo sapiens, UniProt P09238).
T8 construct: purchased R&D Systems (Minneapolis, MN)
T8 sequence (P09238 99-476): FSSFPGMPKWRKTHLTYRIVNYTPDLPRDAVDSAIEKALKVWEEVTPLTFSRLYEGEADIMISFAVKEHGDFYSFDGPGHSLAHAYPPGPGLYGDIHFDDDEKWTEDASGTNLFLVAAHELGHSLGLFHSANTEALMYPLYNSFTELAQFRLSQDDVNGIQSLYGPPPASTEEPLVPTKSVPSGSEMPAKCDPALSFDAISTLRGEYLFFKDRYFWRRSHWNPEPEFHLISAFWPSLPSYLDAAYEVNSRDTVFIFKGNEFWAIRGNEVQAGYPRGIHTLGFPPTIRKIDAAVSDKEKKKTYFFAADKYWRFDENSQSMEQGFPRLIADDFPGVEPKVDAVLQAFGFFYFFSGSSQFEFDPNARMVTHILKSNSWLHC
Put plainly: MMP inhibition assay (Ki). It counts as biochemical. As to the method:
as §1

The target in the next data set is T9, hMMP-13 (Homo sapiens, UniProt P45452).
T9 construct: made in house
Put plainly: MMP inhibition assay (Ki). It counts as biochemical. As to the method:
as §1

A short description of data set [1]: Blood levels in apoE-/- mice. It counts as in vivo. The conditions noted are these: mouse, whole blood, intravenous, 1 nmol, read-out: Blood level. As to the method: Fluorescent probes (one nmol in 100 μL saline) were administered through a jugular vein catheter under inhaled isoflurane anesthesia. Blood samples were collected at various time points after probe administration to monitor blood clearance. Animals were sacrificed at the indicated time points and various organs were harvested. Near-infrared fluorescence reflectance imaging was conducted using an IVIS Spectrum system (Caliper Life Science, Hopkinton, MA) with appropriate excitation (Ex) and emission (Em) filter sets (Ex/Em = 675/720 nm for probe 1 and Ex/Em = 745/800 nm for probes 3 and 4). Fluorescence from 10 μL of blood was converted to % injected dose per gram (% ID/g) using a standard curve derived from serial dilutions of each probe in 10 μL of mouse blood. Tissue fluorescence was quantified as mean efficiency per pixel and was presented as an arbitrary unit (AU) relative to the signal from each probe in 10 μL of mouse blood.

Bounds are passed on as bounds.

Chain of TACE (P78536 215-824): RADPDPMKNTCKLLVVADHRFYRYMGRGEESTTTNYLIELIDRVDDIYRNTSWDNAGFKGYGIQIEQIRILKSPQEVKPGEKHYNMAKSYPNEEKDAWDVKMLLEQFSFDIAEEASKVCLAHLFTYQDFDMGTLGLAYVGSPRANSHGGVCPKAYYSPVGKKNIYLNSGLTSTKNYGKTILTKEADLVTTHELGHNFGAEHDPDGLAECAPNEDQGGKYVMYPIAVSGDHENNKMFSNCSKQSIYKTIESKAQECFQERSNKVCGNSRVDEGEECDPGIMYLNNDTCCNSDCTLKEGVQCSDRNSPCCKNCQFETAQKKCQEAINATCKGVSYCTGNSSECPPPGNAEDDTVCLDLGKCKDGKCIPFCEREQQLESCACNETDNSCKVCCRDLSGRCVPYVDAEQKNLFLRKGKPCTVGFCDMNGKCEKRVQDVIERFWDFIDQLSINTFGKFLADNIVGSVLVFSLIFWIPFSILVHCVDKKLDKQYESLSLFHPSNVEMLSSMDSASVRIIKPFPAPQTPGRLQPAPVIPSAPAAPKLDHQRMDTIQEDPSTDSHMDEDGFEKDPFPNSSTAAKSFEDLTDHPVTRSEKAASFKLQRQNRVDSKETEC
T3 sequence (P08254 100-477): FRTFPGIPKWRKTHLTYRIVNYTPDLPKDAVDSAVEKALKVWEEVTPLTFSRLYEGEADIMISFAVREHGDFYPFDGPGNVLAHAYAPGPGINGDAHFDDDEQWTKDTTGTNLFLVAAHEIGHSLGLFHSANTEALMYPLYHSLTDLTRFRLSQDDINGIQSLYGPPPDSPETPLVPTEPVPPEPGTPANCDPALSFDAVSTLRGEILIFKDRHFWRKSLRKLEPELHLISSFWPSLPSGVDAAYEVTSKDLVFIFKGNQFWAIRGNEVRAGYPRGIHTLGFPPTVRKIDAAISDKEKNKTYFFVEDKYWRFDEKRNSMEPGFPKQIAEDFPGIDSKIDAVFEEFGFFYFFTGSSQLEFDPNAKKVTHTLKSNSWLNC

For the compound `CC1(C)C(/C=C/C2=C(Oc3ccc(CCC(=O)NCCCOCCOCCOCCCNC(=O)[C@H](CCC(=O)[O-])NC(=O)[C@H](CCC(=O)O)NC(=O)[C@H](Cc4cc(-c5ccc(-c6cccc(Cl)c6)cc5)no4)CP(=O)(O)c4ccc(Br)cc4)cc3)C(=C/C=C3/N(CCC[N+](C)(C)C)c4ccc(S(=O)(=O)[O-])cc4C3(C)C)/CCC2)=[N+](CCC[N+](C)(C)C)c2ccc(S(=O)(=O)[O-])cc21` [probe 3], the Ki at TACE was 4.61 ± 0.653 µM; at hMMP-2 it was 2.13 ± 0.172 µM; on hMMP-8 it was 3.31 ± 0.348 µM; at hMMP-3, 0.367 ± 0.061 µM; at hMMP-1 it was more than 10 µM; at hMMP-9 it was 4.79 ± 0.535 µM. For the same compound, the Ki at hMMP-14 worked out at 1.02 ± 0.069 µM; on hMMP-7 it was 4.99 ± 0.151 µM; at hMMP-10, 0.136 ± 0.022 µM; on hMMP-13, 0.124 ± 0.007 µM. In addition, the “fluorescence signal in explanted sponges” value on MMP-12 active form was “intense signal”. The tissue uptake at 30 min in data set [1] is 2.7 ± 0.1 %ID/g. Also, in data set [1], the tissue uptake at 60 min turned out to be 2.3 ± 0.3 %ID/g.
On to `CC1(C)C(=CC=C2CCCC(C=CC3=[N+](CCC[N+](C)(C)C)c4ccc(S(=O)(=O)[O-])cc4C3(C)C)=C2Oc2ccc(CCC(=O)NCCCOCCOCCOCCCNC(=O)C(CCC(=O)[O-])NC(=O)C(CCC(=O)O)NC(=O)C(Cc3cc(-c4cccc(Oc5ccccc5)c4)no3)CP(=O)(O)c3ccc(Br)cc3)cc2)N(CCC[N+](C)(C)C)c2ccc(S(=O)(=O)[O-])cc21` (centres unmarked) [probe 4], for which the Ki at TACE is more than 25 µM; on hMMP-2, more than 12 µM; at hMMP-8 it was 7.5 ± 0.73 µM; at hMMP-3 it was more than 12 µM; at hMMP-1, more than 10 µM; at hMMP-9, 4.9 ± 1.3 µM. Moreover, the Ki on hMMP-14 stood at 7.86 ± 1.53 µM; on hMMP-7 it was 9.8 ± 0.32 µM; at hMMP-10, 6.43 ± 1.67 µM; at hMMP-13, 7.73 ± 1.53 µM. Also, the “fluorescence signal in explanted sponges” value on MMP-12 active form is “significantly lower”. The tissue uptake at 30 min in data set [1] came out at 2.4 ± 0.3 %ID/g. In addition, the tissue uptake at 60 min in [1] is 2 ± 0.2 %ID/g.

As a reminder, the Ki is the dissociation constant of the complex between target and ligand, obtained from inhibition or displacement. High values mean weaker binding, low ones tighter binding.
